biological target: T1, recombinant full-length USP7 (Homo sapiens, UniProt Q93009); assay: USP7-mediated ubiquitin-rhodamine cleavage assay; format: biochemical; conditions: recombinant full-length USP7 62 pM; ubiquitin-rhodamine 100 nM; 30-minute incubation with compound, 1 hour reaction at room temperature; read-out: Potency: USP7 IC50
T1 construct: A 25 μl reaction volume containing recombinant full-length USP7 (62 pM)
How it was run: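 Full-length recombinant USP7 (62 pM) in 20 mM HEPES pH 7.3, 150 mM NaCl, 1 mM TCEP, 125 μg/ml BSA, 1% DMSO, preincubated with compound 30 min at RT. Ubiquitin-rhodamine (100 nM final) cleaved 1 h at RT in the dark, stopped with acetic acid; rhodamine fluorescence read, IC50 by 4-parameter nonlinear fit.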

T1 sequence (Q93009 whole entry): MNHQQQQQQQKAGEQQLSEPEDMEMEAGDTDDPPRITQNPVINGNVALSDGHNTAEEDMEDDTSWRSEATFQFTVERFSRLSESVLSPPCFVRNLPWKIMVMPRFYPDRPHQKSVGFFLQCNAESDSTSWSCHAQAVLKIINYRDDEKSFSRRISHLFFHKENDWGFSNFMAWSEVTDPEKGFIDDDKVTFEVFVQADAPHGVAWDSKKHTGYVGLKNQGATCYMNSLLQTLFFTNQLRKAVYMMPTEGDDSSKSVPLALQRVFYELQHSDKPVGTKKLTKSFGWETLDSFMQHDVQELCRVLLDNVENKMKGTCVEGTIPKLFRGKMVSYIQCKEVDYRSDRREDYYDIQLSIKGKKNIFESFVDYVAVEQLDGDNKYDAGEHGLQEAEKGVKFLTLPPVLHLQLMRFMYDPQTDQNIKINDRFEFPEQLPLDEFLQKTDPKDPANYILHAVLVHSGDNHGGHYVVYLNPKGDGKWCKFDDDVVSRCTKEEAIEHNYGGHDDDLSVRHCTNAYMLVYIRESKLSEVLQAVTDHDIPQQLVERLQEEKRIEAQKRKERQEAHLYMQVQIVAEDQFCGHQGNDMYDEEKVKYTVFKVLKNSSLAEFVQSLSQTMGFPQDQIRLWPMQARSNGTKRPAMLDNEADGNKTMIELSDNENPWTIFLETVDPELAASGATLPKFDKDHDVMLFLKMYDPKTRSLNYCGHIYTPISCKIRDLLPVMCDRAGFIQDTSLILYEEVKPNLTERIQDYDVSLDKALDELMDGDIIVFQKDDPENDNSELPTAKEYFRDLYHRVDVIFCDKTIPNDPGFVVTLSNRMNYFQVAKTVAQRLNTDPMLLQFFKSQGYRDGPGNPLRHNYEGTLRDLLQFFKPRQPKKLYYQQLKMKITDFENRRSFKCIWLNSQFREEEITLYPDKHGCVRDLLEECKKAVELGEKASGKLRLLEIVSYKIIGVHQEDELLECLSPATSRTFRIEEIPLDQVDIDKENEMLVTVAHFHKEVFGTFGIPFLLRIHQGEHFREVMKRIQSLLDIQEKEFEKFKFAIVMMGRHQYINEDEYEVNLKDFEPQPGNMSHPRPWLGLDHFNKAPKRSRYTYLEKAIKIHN

| SMILES | IC50 |
| --- | --- |
| CCC(O)c1cc2ncnc(-c3cc(Cl)cc(C)c3OCC3(C)CNC3)c2s1 (centres unmarked) [Example 47, 1-(4-(5-chloro-3-methyl-2-((3-methylazetidin-3-yl)methoxy)phenyl)thieno[3,2-d]pyrimidin-6-yl)propan-1-ol] | 1 to 10 µM |
| O=C1CNC(=O)N1Cc1cc2ncnc(-c3cccc(OC(F)(F)F)c3)c2s1 [Example 403, 3-[[4-[3-(trifluoromethoxy)phenyl]thieno[3,2-d]pyrimidin-6-yl]methyl]imidazolidine-2,4-dione] | 1 to 10 µM |
| O=C1CCC(=O)N1Cc1cc2nccc(-c3cc(Cl)ccc3O[C@@H]3CNC[C@@H]3F)c2s1 [Example 119, 1-((7-(5-Chloro-2-(((3R,4S)-4-fluoropyrrolidin-3-yl)oxy)phenyl)thieno[3,2-b]pyridin-2-yl)methyl)pyrrolidine-2,5-dione] | 1 to 10 µM |

Continued, values first:

| IC50 | SMILES |
| --- | --- |
| < 1 µM | Cc1cc([N+](=O)[O-])cc(-c2ccnc3cc(Cn4c(=O)ccn(CC(F)(F)F)c4=O)sc23)c1OCc1cn[nH]c1 [Example 283, 3-[[7-[3-methyl-5-nitro-2-(1H-pyrazol-4-ylmethoxy)phenyl]thieno[3,2-b]pyridin-2-yl]methyl]-1-(2,2,2-trifluoroethyl)pyrimidine-2,4-dione; 2,2,2-trifluoroacetic acid] |
| < 1 µM | Cc1cc(Cl)cc(-c2ccnc3cc(CN4C(=O)C5CCCCC5C4=O)sc23)c1O[C@@H]1CNC[C@@H]1F (stereo partly drawn) [Example 142, 2-((7-(5-Chloro-2-(((3R,4S)-4-fluoropyrrolidin-3-yl)oxy)-3-methylphenyl)thieno[3,2-b]pyridin-2-yl)methyl)hexahydro-1H-isoindole-1,3(2H)-dione] |
| < 1 µM | Cc1cc(Cl)cc(-c2ncnc3cc(CN4C(=O)COC4=O)sc23)c1O[C@@H]1CNC[C@@H]1F [Example 128, 3-((4-(5-Chloro-2-(((3R,4S)-4-fluoropyrrolidin-3-yl)oxy)-3-methylphenyl)thieno[3,2-d]pyrimidin-6-yl)methyl)oxazolidine-2,4-dione] |
| < 1 µM | Cc1cc(Cl)cc(-c2ccnc3cc(CN4C(=O)CC(C)(C)C4=O)sc23)c1O[C@H]1CCCNC1 [Example 313, 1-[[7-[5-chloro-3-methyl-2-[[(3S)-3-piperidyl]oxy]phenyl]thieno[3,2-b]pyridin-2-yl]methyl]-3,3-dimethyl-pyrrolidine-2,5-dione; 2,2,2-trifluoroacetic acid] |
| < 1 µM | Cc1cc(Cl)cc(-c2ccnc3cc(Cn4c(=O)ccn(CC(F)(F)F)c4=O)sc23)c1OC1(C(F)(F)F)CCCNC1 (centres unmarked) [Example 274, 3-((7-(5-Chloro-3-methyl-2-((3-(trifluoromethy)piperidin-3-yl)oxy)phenyl)thieno[3,2-b]pyridin-2-yl)methyl)-1-(2,2,2-trifluoroethyl)pyrimidine-2,4(1H,3H)-dione] |

same assay, conditions: recombinant full-length USP7 62 pM; ubiquitin-rhodamine 100 nM; 30-minute pre-incubation, 1 hour reaction at room temperature; read-out: Potency (USP7 IC50)

| IC50 | SMILES |
| --- | --- |
| < 1 µM | CCN1CCC[C@H](Oc2c(C)cc(Cl)cc2-c2ccnc3cc(Cn4c(=O)ccn(C)c4=O)sc23)CC1 [Example 493, 3-[[7-[5-chloro-2-[(4S)-1-ethylazepan-4-yl]oxy-3-methyl-phenyl]thieno[3,2-b]pyridin-2-yl]methyl]-1-methyl-pyrimidine-2,4-dione] |
| < 1 µM | Cc1cc(Cl)cc(-c2ccnc3cc(Cn4c(=O)ccn(CC(F)(F)F)c4=O)sc23)c1O[C@@H]1CN[C@H](C)C1 [Example 633, 3-[[7-[5-chloro-3-methyl-2-[(3S,5R)-5-methylpyrrolidin-3-yl]oxy-phenyl]thieno[3,2-b]pyridin-2-yl]methyl]-1-(2,2,2-trifluoroethyl)pyrimidine-2,4-dione] |
| < 1 µM | Cc1cc(Cl)cc(-c2ccnc3cc(Cn4c(=O)ccn(C)c4=O)sc23)c1O[C@@H]1CN(C)C[C@@H]1F [Example 458, 3-[[7-[5-chloro-2-[(3R,4S)-4-fluoro-1-methyl-pyrrolidin-3-yl]oxy-3-methyl-phenyl]thieno[3,2-b]pyridin-2-yl]methyl]-1-methyl-pyrimidine-2,4-dione; 2,2,2-trifluoroacetic acid] |

— patent publication US10722514B2 (FLX Bio, Inc., priority 2017, dated 2020)
